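In this assay, cells in 96-well plates receive the compound at five concentrations for 48 hours. Endpoints are linearly interpolated between the surrounding concentrations. GI50: concentration for 50% inhibition of growth.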 The source made the active and inactive calls. Cut-off read from the data, not from the text of the source: active = GI50 up to about 1.1 µM and inactive = higher.
Experiments:
Test in all cases: NCI anticancer screen, dose series, 48 h
A549 = system: A549
U-251 = system: U-251
SN12C = system: SN12C
HCC 2998 = system: HCC 2998
EKVX = system: EKVX
NCI-H23 = system: NCI-H23
NCI-H226 = system: NCI-H226
KM12 = system: KM12
OVCAR-8 = system: OVCAR-8
786-0 = system: 786-0
SW-620 = system: SW-620
HOP-62 = system: HOP-62
SF-539 = system: SF-539
UACC-62 = system: UACC-62
HL-60 = system: HL-60
RPMI-8226 = system: RPMI-8226
OVCAR-3 = system: OVCAR-3
NCI-H460 = system: NCI-H460
SF-295 = system: SF-295
COLO 205 = system: COLO 205
NCI-H522 = system: NCI-H522
OVCAR-5 = system: OVCAR-5
UACC-257 = system: UACC-257
DMS-273 = system: DMS-273
HCT-116 = system: HCT-116
A498 = system: A498
K562 = system: K562
LXFL 529 = system: LXFL 529
IGROV-1 = system: IGROV-1
KM-20L2 = system: KM-20L2
TK-10 = system: TK-10
HCT-15 = system: HCT-15
RXF 393 = system: RXF 393
SNB-78 = system: SNB-78
Malme-3M = system: Malme-3M
ACHN = system: ACHN
SK-OV-3 = system: SK-OV-3
SK-MEL-28 = system: SK-MEL-28
SR = system: SR
DMS-114 = system: DMS-114
XF498 = system: XF498
SK-MEL-2 = system: SK-MEL-2
HOP-18 = system: HOP-18
CCRF-CEM = system: CCRF-CEM
M19-MEL = system: M19-MEL
MOLT-4 = system: MOLT-4
M14 = system: M14
SK-MEL-5 = system: SK-MEL-5
HT-29 = system: HT-29
OVCAR-4 = system: OVCAR-4
LOX IMVI = system: LOX IMVI
UO-31 = system: UO-31
DLD-1 = system: DLD-1
SNB-75 = system: SNB-75
SNB-19 = system: SNB-19
CAKI-1 = system: CAKI-1
SF-268 = system: SF-268
HOP-92 = system: HOP-92

**Q.** For `CC[P+](C)(Cc1ccccc1)c1ccccc1` (stereo not given), which GI50 (A549) is on record?
**A.** > 100 µM (inactive)

**Q.** What about the GI50 (U-251) of the same molecule?
**A.** 59 µM (inactive)

**Q.** What about the GI50 (SN12C) of the same molecule?
**A.** > 100 µM (inactive)

**Q.** And the GI50 (HCC 2998)?
**A.** > 100 µM (inactive)

**Q.** What about the GI50 (EKVX) of the same molecule?
**A.** > 100 µM (inactive)

**Q.** What about the GI50 (NCI-H23) of the same molecule?
**A.** > 100 µM (inactive)

**Q.** And the GI50 (NCI-H226)?
**A.** > 100 µM (inactive)

**Q.** And the GI50 (KM12)?
**A.** > 100 µM (inactive)

**Q.** And the GI50 (OVCAR-8)?
**A.** > 100 µM (inactive)

**Q.** What about the GI50 (786-0) of the same molecule?
**A.** > 100 µM (inactive)

**Q.** And the GI50 (SW-620)?
**A.** > 100 µM (inactive)

**Q.** And the GI50 (HOP-62)?
**A.** > 100 µM (inactive)

**Q.** And the GI50 (SF-539)?
**A.** > 100 µM (inactive)

**Q.** What about the GI50 (UACC-62) of the same molecule?
**A.** > 100 µM (inactive)

**Q.** And the GI50 (HL-60)?
**A.** 90.8 µM (inactive)

**Q.** What about the GI50 (RPMI-8226) of the same molecule?
**A.** 57.4 µM (inactive)

**Q.** And the GI50 (OVCAR-3)?
**A.** 58.5 µM (inactive)

**Q.** And the GI50 (NCI-H460)?
**A.** > 100 µM (inactive)

**Q.** What about the GI50 (SF-295) of the same molecule?
**A.** > 100 µM (inactive)

**Q.** What about the GI50 (COLO 205) of the same molecule?
**A.** 69.5 µM (inactive)

**Q.** And the GI50 (NCI-H522)?
**A.** 44.2 µM (inactive)

**Q.** And the GI50 (OVCAR-5)?
**A.** > 100 µM (inactive)

**Q.** What about the GI50 (UACC-257) of the same molecule?
**A.** > 100 µM (inactive)

**Q.** What about the GI50 (DMS-273) of the same molecule?
**A.** > 100 µM (inactive)

**Q.** What about the GI50 (HCT-116) of the same molecule?
**A.** > 100 µM (inactive)

**Q.** What about the GI50 (A498) of the same molecule?
**A.** > 100 µM (inactive)

**Q.** And the GI50 (K562)?
**A.** > 100 µM (inactive)

**Q.** What about the GI50 (LXFL 529) of the same molecule?
**A.** 74.6 µM (inactive)

**Q.** What about the GI50 (IGROV-1) of the same molecule?
**A.** > 100 µM (inactive)

**Q.** And the GI50 (KM-20L2)?
**A.** > 100 µM (inactive)

**Q.** What about the GI50 (TK-10) of the same molecule?
**A.** > 100 µM (inactive)

**Q.** What about the GI50 (HCT-15) of the same molecule?
**A.** > 100 µM

**Q.** What about the GI50 (RXF 393) of the same molecule?
**A.** > 100 µM (inactive)

**Q.** And the GI50 (SNB-78)?
**A.** > 100 µM (inactive)

**Q.** What about the GI50 (Malme-3M) of the same molecule?
**A.** 91.8 µM (inactive)

**Q.** What about the GI50 (ACHN) of the same molecule?
**A.** > 100 µM (inactive)

**Q.** And the GI50 (SK-OV-3)?
**A.** > 100 µM (inactive)

**Q.** What about the GI50 (SK-MEL-28) of the same molecule?
**A.** > 100 µM (inactive)

**Q.** What about the GI50 (SR) of the same molecule?
**A.** > 100 µM (inactive)

**Q.** What about the GI50 (DMS-114) of the same molecule?
**A.** 87.7 µM (inactive)

**Q.** And the GI50 (XF498)?
**A.** 24.7 µM (inactive)

**Q.** And the GI50 (SK-MEL-2)?
**A.** > 100 µM (inactive)

**Q.** And the GI50 (HOP-18)?
**A.** > 100 µM (inactive)

**Q.** What about the GI50 (CCRF-CEM) of the same molecule?
**A.** > 100 µM (inactive)

**Q.** And the GI50 (M19-MEL)?
**A.** 43.4 µM (inactive)

**Q.** What about the GI50 (MOLT-4) of the same molecule?
**A.** > 100 µM (inactive)

**Q.** And the GI50 (M14)?
**A.** > 100 µM (inactive)

**Q.** What about the GI50 (SK-MEL-5) of the same molecule?
**A.** 51.3 µM (inactive)

**Q.** And the GI50 (HT-29)?
**A.** > 100 µM (inactive)

**Q.** And the GI50 (OVCAR-4)?
**A.** > 100 µM (inactive)

**Q.** And the GI50 (LOX IMVI)?
**A.** > 100 µM (inactive)

**Q.** What about the GI50 (UO-31) of the same molecule?
**A.** > 100 µM (inactive)

**Q.** And the GI50 (DLD-1)?
**A.** > 100 µM (inactive)

**Q.** What about the GI50 (SNB-75) of the same molecule?
**A.** > 100 µM (inactive)

**Q.** What about the GI50 (SNB-19) of the same molecule?
**A.** > 100 µM (inactive)

**Q.** With `O=C1OC2C(O)COC2(O)C1(O)Cc1c[nH]c2ccccc12.O=C1OC2C(O)COC2(OCc2c[nH]c3ccccc23)C1O` (stereo not given) as the molecule, how does the GI50 (A549) read?
**A.** > 100 µM (inactive)

**Q.** What about the GI50 (U-251) of the same molecule?
**A.** > 100 µM (inactive)

**Q.** And the GI50 (SN12C)?
**A.** > 100 µM (inactive)

**Q.** What about the GI50 (EKVX) of the same molecule?
**A.** > 100 µM (inactive)

**Q.** What about the GI50 (NCI-H23) of the same molecule?
**A.** > 100 µM (inactive)

**Q.** And the GI50 (NCI-H226)?
**A.** > 100 µM (inactive)

**Q.** What about the GI50 (KM12) of the same molecule?
**A.** > 100 µM (inactive)

**Q.** And the GI50 (OVCAR-8)?
**A.** > 100 µM (inactive)

**Q.** What about the GI50 (786-0) of the same molecule?
**A.** > 100 µM (inactive)

**Q.** And the GI50 (SW-620)?
**A.** > 100 µM (inactive)

**Q.** What about the GI50 (HOP-62) of the same molecule?
**A.** > 100 µM (inactive)

**Q.** And the GI50 (SF-539)?
**A.** > 100 µM (inactive)

**Q.** What about the GI50 (UACC-62) of the same molecule?
**A.** > 100 µM (inactive)

**Q.** What about the GI50 (HL-60) of the same molecule?
**A.** > 100 µM (inactive)

**Q.** And the GI50 (RPMI-8226)?
**A.** > 100 µM (inactive)

**Q.** What about the GI50 (OVCAR-3) of the same molecule?
**A.** > 100 µM (inactive)

**Q.** And the GI50 (NCI-H460)?
**A.** > 100 µM (inactive)

**Q.** What about the GI50 (SF-295) of the same molecule?
**A.** > 100 µM (inactive)

**Q.** What about the GI50 (COLO 205) of the same molecule?
**A.** > 100 µM (inactive)

**Q.** And the GI50 (NCI-H522)?
**A.** > 100 µM (inactive)

**Q.** What about the GI50 (OVCAR-5) of the same molecule?
**A.** > 100 µM (inactive)

**Q.** And the GI50 (CAKI-1)?
**A.** > 100 µM (inactive)

**Q.** And the GI50 (UACC-257)?
**A.** > 100 µM (inactive)

**Q.** What about the GI50 (DMS-273) of the same molecule?
**A.** > 100 µM (inactive)

**Q.** And the GI50 (HCT-116)?
**A.** > 100 µM (inactive)

**Q.** And the GI50 (SF-268)?
**A.** > 100 µM (inactive)

**Q.** And the GI50 (A498)?
**A.** > 100 µM (inactive)

**Q.** What about the GI50 (K562) of the same molecule?
**A.** > 100 µM (inactive)

**Q.** What about the GI50 (LXFL 529) of the same molecule?
**A.** > 100 µM (inactive)

**Q.** What about the GI50 (IGROV-1) of the same molecule?
**A.** > 100 µM (inactive)

**Q.** What about the GI50 (KM-20L2) of the same molecule?
**A.** > 100 µM (inactive)

**Q.** And the GI50 (TK-10)?
**A.** > 100 µM (inactive)

**Q.** And the GI50 (HCT-15)?
**A.** > 100 µM

**Q.** And the GI50 (RXF 393)?
**A.** > 100 µM (inactive)

**Q.** What about the GI50 (SNB-78) of the same molecule?
**A.** > 100 µM (inactive)

**Q.** What about the GI50 (Malme-3M) of the same molecule?
**A.** > 100 µM (inactive)

**Q.** What about the GI50 (SK-OV-3) of the same molecule?
**A.** > 100 µM (inactive)

**Q.** What about the GI50 (SR) of the same molecule?
**A.** > 100 µM (inactive)

**Q.** What about the GI50 (DMS-114) of the same molecule?
**A.** > 100 µM (inactive)

**Q.** And the GI50 (XF498)?
**A.** > 100 µM (inactive)

**Q.** And the GI50 (SK-MEL-2)?
**A.** > 100 µM (inactive)

**Q.** What about the GI50 (HOP-18) of the same molecule?
**A.** > 100 µM (inactive)

**Q.** And the GI50 (CCRF-CEM)?
**A.** > 100 µM (inactive)

**Q.** And the GI50 (M19-MEL)?
**A.** > 100 µM (inactive)

**Q.** What about the GI50 (MOLT-4) of the same molecule?
**A.** > 100 µM (inactive)

**Q.** And the GI50 (M14)?
**A.** > 100 µM (inactive)

**Q.** What about the GI50 (SK-MEL-5) of the same molecule?
**A.** > 100 µM (inactive)

**Q.** What about the GI50 (HT-29) of the same molecule?
**A.** > 100 µM (inactive)

**Q.** What about the GI50 (OVCAR-4) of the same molecule?
**A.** > 100 µM (inactive)

**Q.** And the GI50 (HOP-92)?
**A.** > 100 µM (inactive)

**Q.** And the GI50 (LOX IMVI)?
**A.** > 100 µM (inactive)

**Q.** What about the GI50 (UO-31) of the same molecule?
**A.** > 100 µM (inactive)

**Q.** What about the GI50 (DLD-1) of the same molecule?
**A.** > 100 µM (inactive)

**Q.** And the GI50 (SNB-75)?
**A.** > 100 µM (inactive)

**Q.** And the GI50 (SNB-19)?
**A.** > 100 µM (inactive)

— ChEMBL document CHEMBL1201862, “PubChem BioAssay data set” (2004)
